Data from ChEMBL document CHEMBL1128902, “Selectively deoxygenated sulfated tetrasaccharides as probes for the investigation of smooth muscle cell antiproliferative activity” (1996).

Species on record: Rattus norvegicus
Test: Antiproliferative activity against rat smooth muscle cell (SMC) expressed as relative activity compared to heparin; ri is relative inhibitory activity
Assay type: functional

SMILES	Relative inhibitory activity
OC[C@H]1O[C@H](O[C@H]2O[C@H](CO)[C@@H](O[C@H]3O[C@H](CO)[C@@H](O[C@H]4O[C@H](CO)[C@@H](O)[C@H](O)[C@H]4O)[C@H](O)[C@H]3O)[C@H](O)[C@H]2O)[C@H](O)[C@@H](O)[C@@H]1O	0.9
C[C@@H]1O[C@H](O[C@H]2[C@H](O)[C@H](O)[C@H](O[C@H]3[C@H](O)[C@H](O)[C@@H](O[C@H]4O[C@H](CO)[C@@H](O)[C@@H](O)[C@@H]4O)O[C@H]3CO)O[C@H]2CO)[C@@H](O)[C@@H](O)[C@@H]1O	0.6
